Data taken from patent US20090118331A1, “Use of Lobeline Epimers in the Treatment of Central Nervous System Diseases, Pathologies, and Drug Abuse” (priority 2007, published 2009).
Values joined by “and” are separate entries in the source; they are usually repeats but may differ in a detail not shown here. Equal entries are not always repeated.

Experiments:
[1] = in vivo
Protocol: Here, serial doses of lobeline were administered to male and female rats intravenously, subcutaneously or orally, and the pharmacokinetic profiles of the parent lobeline and its epimer were monitored in plasma.

[2] = Pharmacokinetics of lobeline and epimer in human subjects after sublingual lobeline administration (7.5, 15, 30 mg); conditions: for CL/F (extravascular clearance): epimer
Text: The pharmacokinetics of lobeline and lobeline epimer were examined in eight human subjects (Sub) after sublingual lobeline administration.

[3] = clinical; conditions: human, in vivo
Protocol: Three consecutive doses of lobeline (either 30, 45 and 45 mg in the first study group, or 60, 60 and 60 mg in the second group) were administered to human volunteers at 0800, 1200 and 1600 over two full inpatient days. The pharmacokinetics of lobeline and epimer were then assessed in each subject. […] A crude index of accumulation (non-steady state) was obtained by dividing the sixth dose trough concentration by that observed for the fifth dose.

[4] = Lobeline epimerization in pH 7.4 phosphate buffer control; conditions: after 2 hours, with impurity
Protocol: In order to determine the tendency of lobeline to undergo epimerization in the HEPES buffer employed in the 25° C. [^3H]DTBZ binding study and the 37° C. VMAT2 uptake studies previously described, analogous solution epimerization experiments were conducted using the corresponding conditions for each individual assay. […] As this dynamic phenomenon occurs, the ratio of lobeline to lobeline epimer in solution naturally changes over time. Further, depending upon the solution conditions, the rate and extent of epimerization may vary; thus, a ratio of lobeline to epimer, if achieved, may occur at various time points. After 2 hours, the 25° C. […] The epimerization of lobeline in the 37° C.

[5] = female, rat, in vivo, po, 20 mg/kg
[6] = female, rat, in vivo, sc, 3 mg/kg
[7] = male, rat, in vivo, iv, 2 mg/kg
[8] = male, rat, in vivo, po, 20 mg/kg
[9] = male, rat, in vivo, sc, 3 mg/kg
[10] = epimer in plasma, individual human subjects, sublingual lobeline 7.50 mg
[11] = epimer in plasma, individual human subjects, sublingual lobeline 15.0 mg
[12] = epimer in plasma, individual human subjects, sublingual lobeline 30.0 mg
[13] = individual human subjects, sublingual lobeline 7.50 mg
[14] = individual human subjects, sublingual lobeline 15.0 mg
[15] = individual human subjects, sublingual lobeline 30.0 mg

SMILES: CN1[C@H](CC(=O)c2ccccc2)CCC[C@H]1C[C@H](O)c1ccccc1 (single isomer, unassigned; epimer 2) [Epimer, 2-[6S-(2S-hydroxy-2-phenyl-ethyl)-1-methyl-piperidin-2S-yl]-1-phenyl-ethanone]
- AUC(0-inf) [1, 5]: 40.9 ng·h/mL
- AUC(0-t) [1, 5]: 39.3 ng·h/mL
- Cmax [1, 5]: 23.8 ng/mL
- MRT last [1, 5]: 2.16 h
- Tmax [1, 5]: 0.5 h
- half-life [1, 5]: 1.71 h
- AUC(0-inf) [1, 6]: 128 ng·h/mL
- AUC(0-t) [1, 6]: 127 ng·h/mL
- Cmax [1, 6]: 85 ng/mL
- MRT last [1, 6]: 1.5 h
- Tmax [1, 6]: 0.5 h
- half-life [1, 6]: 1.11 h
- AUC(0-inf) [1, 7]: 69.7 ng·h/mL
- AUC(0-t) [1, 7]: 68.7 ng·h/mL
- Cmax [1, 7]: 47.6 ng/mL
- MRT last [1, 7]: 1.51 h
- Tmax [1, 7]: 0.25 h
- Vd [1, 7]: 46.3 L/kg
- clearance [1, 7]: 0.48 mL/min/kg
- half-life [1, 7]: 1.26 h
- AUC(0-inf) [1, 8]: 54.8 ng·h/mL
- AUC(0-t) [1, 8]: 54 ng·h/mL
- Cmax [1, 8]: 49.8 ng/mL
- MRT last [1, 8]: 1.73 h
- Tmax [1, 8]: 0.5 h
- half-life [1, 8]: 1.32 h
- AUC(0-inf) [1, 9]: 109 ng·h/mL
- AUC(0-t) [1, 9]: 108 ng·h/mL
- Cmax [1, 9]: 54.4 ng/mL
- MRT last [1, 9]: 1.45 h
- Tmax [1, 9]: 0.5 h
- half-life [1, 9]: 1.11 h
- time after lobeline administration within which significant epimer concentrations were achieved in plasma ([1]; rats, irrespective of dose or route): 15 to 30 min
- dose linearity of Cmax and CL/F ([2]; dose range from 7.5 to 30 mg, sublingual, human): Linear kinetics
- AUC(0-∞) [2, 10]: 11.92 ng·h/mL
- AUCext (percent of AUC(0-∞) determined by extrapolation) [2, 10]: 40.22% and 37.47% and 21.02% and 13.37% and 29.10% and 11.02% and 21.05% and 22.14%
- Tlast (time of last measurable plasma concentration) [2, 10]: 2.00 hr and 3.00 hr (4×) and 6.00 hr and 12.00 hr and 4.00 hr
- λz (terminal exponential rate constant) [2, 10]: 0.6868 h⁻¹ and 0.3858 h⁻¹ and 0.6119 h⁻¹ and 0.3882 h⁻¹ and 0.531 h⁻¹ and 0.2004 h⁻¹ and 0.6101 h⁻¹ and 0.489 h⁻¹
- AUC(0-∞) [2, 11]: 24.30 ng·h/mL
- AUCext (percent of AUC(0-∞) determined by extrapolation) [2, 11]: 10.70% and 12.80% and 22.39% and 5.75% and 10.95% and 14.68% and 8.64% and 8.10%
- Tlast (time of last measurable plasma concentration) [2, 11]: 4.17 hr and 4.00 hr (3×) and 8.00 hr and 11.00 hr and 4.03 hr and 6.00 hr
- λz (terminal exponential rate constant) [2, 11]: 0.6055 h⁻¹ and 0.6196 h⁻¹ and 0.4338 h⁻¹ and 0.3591 h⁻¹ and 0.684 h⁻¹ and 0.1908 h⁻¹ and 0.7266 h⁻¹ and 0.5175 h⁻¹
- AUC(0-t) [2, 12]: 83.89 ng·h/mL and 20.12 ng·h/mL and 87.17 ng·h/mL
- AUCext (percent of AUC(0-∞) determined by extrapolation) [2, 12]: 3.89% and 10.44% and 5.56% and 15.37% and 11.12% and 3.26% and 7.85% and 5.01%
- Tlast (time of last measurable plasma concentration) [2, 12]: 6.00 hr (2×) and 4.00 hr (3×) and 8.00 hr (2×) and 22.75 hr
- λz (terminal exponential rate constant) [2, 12]: 0.6184 h⁻¹ and 0.6931 h⁻¹ and 0.5281 h⁻¹ and 0.25 h⁻¹ and 0.7194 h⁻¹ and 0.1513 h⁻¹ and 0.8194 h⁻¹ and 0.3741 h⁻¹
- CL/F (extravascular clearance) [2, 13]: 282.7 mL/min/kg and 110.1 mL/min/kg and 240.7 mL/min/kg and 70.7 mL/min/kg and 159.2 mL/min/kg and 17.4 mL/min/kg and 225.5 mL/min/kg and 144.2 mL/min/kg
- CL/F (extravascular clearance) [2, 14]: 188.2 mL/min/kg and 120.8 mL/min/kg and 161.7 mL/min/kg and 56.2 mL/min/kg and 175.6 mL/min/kg and 14.5 mL/min/kg and 180.2 mL/min/kg and 97.3 mL/min/kg
- CL/F (extravascular clearance) [2, 15]: 153.7 mL/min/kg and 184.5 mL/min/kg and 146.9 mL/min/kg and 55.5 mL/min/kg and 285.9 mL/min/kg and 13.7 mL/min/kg and 259.4 mL/min/kg and 74.9 mL/min/kg
- ratio of the cumulative amount of urinary epimer to lobeline ([2]; human subjects, sublingual lobeline): approximately 0.5
- Combined urinary excretion of lobeline and epimer ([2]; human, in vivo): ≤ 0.5%
- AUC(0-inf) ([2]; human, in vivo, 7.5 mg, epimer in plasma, individual human subjects, sublingual lobeline 7.50 mg): 13.2 ng·h/mL
- AUC(0-inf) ([2]; human, in vivo, 15 mg, epimer in plasma, individual human subjects, sublingual lobeline 15.0 mg): 17.3 ng·h/mL
- AUC(0-inf) ([2]; human, in vivo, 30 mg, epimer in plasma, individual human subjects, sublingual lobeline 30.0 mg): 91.8 ng·h/mL
- half-life ([2]; human, in vivo, 30 mg, Terminal exponential phase half-life (T1/2), average): ~1.7 h
- half-life ([2]; human, in vivo, 30 mg, Terminal exponential phase half-lives (T1/2 values), range): 1 to 5 h
- Tmax ([2]; human, in vivo, 30 mg, Tmax values, range): 0.25 to 3 h
- Tmax ([2]; human, in vivo, 30 mg, Tmax, average): 1.3 h
- half-life ([2]; human, in vivo, mean T1/2 values, human subjects, sublingual lobeline): ~2 h
- ratio of epimer to lobeline in plasma (Cmax and area under the curve; x to 1) ([2]; humans receiving sublingual lobeline 7.5, 15 and 30 mg): 8-10 and 8 to 10
- AUC(0-∞) Ratio (Epi/Lob) [2, 13]: 8.23 and 7.66 and 4.64 and 8.82 and 4.97 and 10.29 and 6.66 and 7.29
- AUC(0-∞) Ratio (Epi/Lob) [2, 14]: 10.60 and 7.17 and 8.44 and 9.79 and 6.74 and 12.94 and 6.63 and 10.97
- AUC(0-∞) Ratio (Epi/Lob) [2, 15]: 11.77 and 6.33 and 8.63 and 10.30 and 6.07 and 11.84 and 9.02 and 11.44
- half-life [3]: 3.47 h
- time at which geometric mean plasma concentration peaked [3]: 1.38 h
- component content of solution ([4]; pH 7.4 phosphate buffer control, same temperature as 25° C. binding buffer): 35%
- component content of solution ([4]; phosphate buffer control for the 37° C. VMAT2 uptake buffer): 36%
